Reference: patent US6969583B2, “Method for detecting variant HBV” (Melbourne Health, priority 2000, dated 2005)
Where two headings read alike, the source gives them in different places.

Assays:
Assay type in all cases: cell-based, Hepatitis B virus
[1] = tested on: Precore/L526M/M550V recombinant HBV-baculovirus; test: Antiviral testing, Precore/L526M/M550V recombinant HBV-baculovirus in HepG2 cells (Example 17); settings: Hepatitis B virus, NDR = no dose response
Description: (§1) HepG2 cells were seeded at approximately 20-40% confluency and then were grown for 16-24 hours before infection. On the day of infection, triplicate plates of cells were trypsinized, and viable cell number was determined with a hemocytometer using Trypan blue exclusion. Average cell counts were calculated and used to determine the volume of high-titer viral stock necessary to infect cells at the indicated moi. HepG2 cells were washed one time with serum-free MEM to remove traces of serum. Baculovirus was diluted into MEM without serum to achieve the appropriate moi using volumes of 1.0, 0.5, and 0.25 ml to infect 100-mm, 60 mm, and 35-mm dishes, respectively. Baculovirus was adsorbed to HepG2 cells for one hour at 37° C. with gentle rocking every 15 minutes to ensure that the inoculum was evenly distributed. The inoculum was then aspirated and HepG2 cells were washed two times with phosphate-buffered saline and refed MEM-FBS with or without various concentrations of agents.
(§2) HBV core particles were isolated from the cytoplasmic fraction of HepG2 cells lysed in 0.5% w/v NP-40. Cytoplasmic extracts were adjusted to 10 mmol/l McC12 and unprotected DNA was removed by an incubation to […] for 1.5 hours at 37° C. Following sequential phenol and chloroform extractions, nucleic acids were recovered by ethanol precipitation. Nucleic acids were resuspended in 50 μl/l TE (10 mmol/l Tris, 1 mmol/l ethylenedianinetetraacetic acid), normalized by OD260, and digested with 100 μg/ml RNase (Boehringer Mannheim, Indianapolis, Ind.) for one hour at 37° C. before analysis by electrophoresis and Southern blotting. A BioRad GS-670 imaging densitometer and the Molecular Analyst software (BioRad, Hecules Calif.) was used to analyze suitable exposures of Southern blots. Densitometry data was fitted to logistic dose response curves using the TableCurve2D software package from Jandel Scientific. Logistic dose response equations were used to calculate IC50 and IC90 values and co-efficients of variation.
(§3) Conditioned medium was collected from HepG2 cells and subjected to centrifugation at 6,000 g for five minutes to remove cellular debris. HBV particles were precipitated with 10% w/v PEG 8000 and were concentrated by centrifugation at 12,000 ×g. Viral pellets were resuspended us 1 ml of MEM-FBS and divided into two aliquots. One set of aliquots was treated with 750 μg/ml Pronase for one hour and then with […] DNase 1 for one hour. Both sets of aliquots were then digested with Proteinase K, and extracted with phenol and chloroform. DNA was precipitated with 0.1 volume of 3 mol/l sodium acetate and 1 volume of isopropanol. Ten micrograms of transfer RNA was added as a carrier during precipitation. […] DNA was then analyzed by electrophoresis and Southern blotting. […]

[2] = tested on: Precore/M550I recombinant HBV-baculovirus; test: Antiviral testing, Precore/M550I recombinant HBV-baculovirus in HepG2 cells (Example 17); settings: Hepatitis B virus, NDR = no dose response
Description: as §1, §2, §3

[3] = tested on: wild-type (WT) recombinant HBV-baculovirus; test: Antiviral testing, wild-type (1.3x genomic length) recombinant HBV-baculovirus in HepG2 cells (Example 17)
Description: as §1, §2
(§4) Conditioned medium was collected from HepG2 cells and subjected to centrifugation at 6,000 g for five minutes to remove cellular debris. HBV particles were precipitated with 10% w/v PEG 8000 and were concentrated by centrifugation at 12,000 ×g. Viral pellets were resuspended us 1 ml of MEM-FBS and divided into two aliquots. One set of aliquots was treated with 750 μg/ml Pronase for one hour and then with […] DNase 1 for one hour. Both sets of aliquots were then digested with Proteinase K, and extracted with phenol and chloroform. DNA was precipitated with 0.1 volume of 3 mol/l sodium acetate and 1 volume of isopropanol. Ten micrograms of transfer RNA was added as a carrier during precipitation. Pellets were resuspended in 25 μl of TE and digested with 0.5 mg/ml RNase for one hour. DNA was then analyzed by electrophoresis and Southern blotting.
(§5) 3TC and PCV were a gift from Klaus Esser, SmithKline Beecham, Collegeville, Pa. PMEA was obtained from Gilead (Foster City, Calif.). 3TC was resuspended in sterile water, aliquoted, and frozen at −20° C. to avoid repeated freezing and thawing of the drug. PMEA was resuspended in sterile water after the pH was adjusted to 7.0 with NaOH. PCV was resuspended in dimethyl sulphoxide. Medium containing 3TC was prepared daily as needed using fresh aliquots of 3TC. In experiments in which 3TC treatment was initiated after viral infection, HepG2 cells were exposed to the indicated concentration of 3TC immediately after infection with HBV baculovirus. In experiments utilizing pretreatment with 3TC, cells were fed medium containing 3TC 16 hours prior to HBV baculovirus infection, HBV baculovirus infection was also carried out in medium containing 3TC, and cells were refed fresh medium containing 3TC immediately after completion of the infection and washing procedures. Treatment with PMEA and PCV were conducted in a similar manner.

[4] = tested on: M550I recombinant HBV-baculovirus; test: Antiviral testing, M550I recombinant HBV-baculovirus in HepG2 cells (Example 17); settings: Hepatitis B virus, HepG2, intracellular single-stranded HBV DNA, NDR = no dose response, read-out: IC50 (μM), IC SS
Description: as §1
(§6) HBV core particles were isolated from the cytoplasmic fraction of HepG2 cells lysed in 0.5% w/v NP-40. […]
(§7) Conditioned medium was collected from HepG2 cells and subjected to centrifugation at 6,000 g for five minutes to remove cellular debris. […] DNA was then analyzed by electrophoresis and Southern blotting. […]

[5] = tested on: precore (G1896A) recombinant HBV-baculovirus; test: Antiviral testing of the precore mutant (G1896A) HBV baculovirus in HepG2 cells (Example 17)
Description: as §1, §2, §4, §5

[6] = tested on: L526M/M550V recombinant HBV-baculovirus; test: Antiviral testing, L526M/M550V recombinant HBV-baculovirus in HepG2 cells (Example 17); settings: Hepatitis B virus, HepG2, intracellular single-stranded HBV DNA, NDR = no dose response, read-out: IC50 (μM), IC SS
Description: as §1, §6, §7

M550I HBV baculovirus = test: Antiviral testing with M550I HBV baculovirus in HepG2 cells (Example 15)
Description: as §1, §2, §5

L526M HBV baculovirus = test: Antiviral testing with L526M HBV baculovirus in HepG2 cells (Example 15)
Description: as §1, §2, §5

[7] = HepG2, extracellular relaxed circular HBV DNA, read-out: IC50 (μM), EC RC
[8] = HepG2, intracellular single-stranded HBV DNA, read-out: IC50 (μM), IC SS

With `Nc1ncnc2c1ncn2CCOCP(=O)(O)O` [Adefovir, 9-(2-phosphonylmethoxyethyl)adenine] the IC50 [1, 7] was 1 µM, the IC50 [1, 8] was 0.47 µM and the IC50 [2, 7] was 0.09 µM. For the same compound, the IC50 [2, 8] was 0.28 µM, the IC50 ([3]; Hepatitis B virus, HepG2, WT, extracellular relaxed circular HBV DNA, averages where footnoted, read-out: IC50 (μM), EC RC) was 0.0535 µM and the IC50 ([3]; Hepatitis B virus, HepG2, WT, extracellular relaxed circular HBV DNA, individual experiments behind the average, read-out: IC50, single experiments, EC RC) was 0.06 µM. For the same compound, the IC50 ([3]; Hepatitis B virus, HepG2, WT, intracellular single-stranded HBV DNA, averages where footnoted, read-out: IC50 (μM), IC SS) was 0.235 µM, the IC50 ([3]; Hepatitis B virus, HepG2, WT, intracellular single-stranded HBV DNA, individual experiments behind the average, read-out: IC50, single experiments, IC SS) was 0.25 µM and the IC50 ([3]; WT, extracellular relaxed circular HBV DNA, individual experiments behind the average, read-out: IC50, single experiments, EC RC) was 0.047 µM. For the same compound, the IC50 ([3]; WT, intracellular single-stranded HBV DNA, individual experiments behind the average, read-out: IC50, single experiments, IC SS) was 0.22 µM, the IC50 [4] was 0.94 µM and the IC50 ([5]; Hepatitis B virus, HepG2, Precore (G1896A), extracellular relaxed circular HBV DNA, averages where footnoted, read-out: IC50 (μM), EC RC) was 0.025 µM. For the same compound, the IC50 ([5]; Hepatitis B virus, HepG2, Precore (G1896A), extracellular relaxed circular HBV DNA, individual experiments behind the average, read-out: IC50, single experiments, EC RC) was 0.02 µM, the IC50 ([5]; Hepatitis B virus, HepG2, Precore (G1896A), intracellular single-stranded HBV DNA, averages where footnoted, read-out: IC50 (μM), IC SS) was 0.195 µM and the IC50 ([5]; Hepatitis B virus, HepG2, Precore (G1896A), intracellular single-stranded HBV DNA, individual experiments behind the average, read-out: IC50, single experiments, IC SS) was 0.2 µM. For the same compound, the IC50 ([5]; Precore (G1896A), extracellular relaxed circular HBV DNA, individual experiments behind the average, read-out: IC50, single experiments, EC RC) was 0.03 µM, the IC50 ([5]; Precore (G1896A), intracellular single-stranded HBV DNA, individual experiments behind the average, read-out: IC50, single experiments, IC SS) was 0.19 µM and the “sensitivity of G1896A HBV compared with wild type HBV” value ([5]; result in words) was “at least as sensitive”. For the same compound, the IC50 [6] was 0.93 µM, the inhibition at 1 µM (M550I HBV baculovirus; Hepatitis B virus, HepG2, 550 (M550I) HBV, ds HBV DNA band density vs untreated controls, estimated from fitted curve, negative = stimulation) was 70% and the IC50 (M550I HBV baculovirus; Hepatitis B virus, 550 (M550I) HBV, ds HBV DNA bands, HepG2 cells, read-out: IC50) was 0.31 µM. For the same compound, the “Resistance Factor” value (M550I HBV baculovirus; {}) was 4, the “change in sensitivity of L526M compared to wild-type” value (L526M HBV baculovirus; FIG. 7A-7C, result in words) was “No significant change” and the inhibition at 1 µM (L526M HBV baculovirus; Hepatitis B virus, HepG2, 526 (L526M) HBV, ds HBV DNA band density vs untreated controls, estimated from fitted curve, negative = stimulation, read-out: Inhibition at 1 μM) was 86.2%. The IC50 (L526M HBV baculovirus; Hepatitis B virus, 526 (L526M) HBV, ds HBV DNA bands, HepG2 cells, read-out: IC50) was 0.09 µM and the “Resistance Factor” value (L526M HBV baculovirus; {}) was 1.
